# Molecular target: Ras-related protein Rab-2A (Canis lupus familiaris) (UniProt P61105)
# Test: potency of blocking fluorescent GTP on Rab2A – biochemical, GST-Rab2 beads, Bodipy-FL-GTP, flow cytometry, multiplex, dose response (AID 1337)
# Conditions: Bead-bound GST-Rab2 wt, Bodipy-FL-GTP binding
row,EC50,Compound
1,4.02 µM,O=[N+]([O-])c1cc2oc3c(c2c(C=NCc2ccccc2)c1O)CCCC3
2,1.99 µM,COC(=O)c1c(N2C(=O)[C@H]3[C@@H](C2=O)[C@]2(C(=O)Nc4c(C)cc(C)cc42)N2CCC[C@@H]32)sc(C)c1C
3,26.3 µM,OC(CNCCC1C=Nc2ccccc21)Cn1c2ccc(Cl)cc2c2cc(Cl)ccc21 (stereo not drawn)

# Reference: PubChem BioAssay AID1337 (NMMLSC, 2008)
